# Experimental data reported in patent publication US10858335B2 (Rigel Pharmaceuticals, Inc., priority 2014, dated 2020).
# Structures can show the parent of a compound that is named as a salt.
# System: GDF8 signaling (p-SMAD-3 (Ser423/425))
# Test: AlphaScreen SureFire SMAD3 (p-Ser423/425) assay, GDF8-stimulated cells (GDF pSMAD)
# Format: cell-based
# Settings: Mus musculus, MPC-11, MPC11; GDF8-stimulated; p-SMAD3 AlphaScreen; read-out: GDF pSMAD (MPC11) (inhibition of GDF8 signaling)
row,Compound,IC50
1,"Cc1cc(-c2ncccc2-c2ccc3ncc(C(=O)Nc4cccc(S(N)(=O)=O)c4)n3c2)ccc1F [compound 616, 6-(2-(4-Fluoro-3-methylphenyl)pyridin-3-yl)-N-(3-sulfamoylphenyl)imidazo[1,2-a]pyridine-3-carboxamide]",2180 nM
2,"Cc1cc(-c2ncccc2-c2ccc3ncc(C(=O)Nc4ccc(S(N)(=O)=O)cc4)n3c2)ccc1F [compound 617, 6-(2-(4-Fluoro-3-methylphenyl)pyridin-3-yl)-N-(4-sulfamoylphenyl)imidazo[1,2-a]pyridine-3-carboxamide]",10800 nM
3,"Cc1cc(-c2ncccc2-c2ccc3ncc(C(=O)Nc4ccc(C(N)=O)cc4)n3c2)ccc1F [compound 618, N-(4-Carbamoylphenyl)-6-(2-(4-fluoro-3-methylphenyl)pyridin-3-yl)imidazo[1,2-a]pyridine-3-carboxamide]",1120 nM
4,"Cc1cc(-c2ncccc2-c2ccc3ncc(C(=O)Nc4cccc(C(N)=O)c4)n3c2)ccc1F [compound 619, N-(3-Carbamoylphenyl)-6-(2-(4-fluoro-3-methylphenyl)pyridin-3-yl)imidazo[1,2-a]pyridine-3-carboxamide]",544 nM
5,"N#Cc1cnc2ccc(-c3cccnc3-c3cccc(F)c3)cn12 [compound 621, 6-(2-(3-Fluorophenyl)pyridin-3-yl)imidazo[1,2-a]pyridine-3-carbonitrile]",3930 nM
6,"N#Cc1cnc2ccc(-c3cccnc3-c3ccc(F)c(F)c3)cn12 [compound 622, 6-(2-(3,4-Difluorophenyl)pyridin-3-yl)imidazo[1,2-a]pyridine-3-carbonitrile]",3630 nM
7,"N#Cc1cnc2ccc(-c3cccnc3-c3ccccc3F)cn12 [compound 623, 6-(2-(2-Fluorophenyl)pyridin-3-yl)imidazo[1,2-a]pyridine-3-carbonitrile]",6870 nM
8,"Cc1ccc(F)c(-c2ncccc2-c2ccc3ncc(C#N)n3c2)c1 [compound 624, 6-(2-(2-Fluoro-5-methylphenyl)pyridin-3-yl)imidazo[1,2-a]pyridine-3-carbonitrile]",160 nM
9,"N#Cc1cnc2ccc(-c3cccnc3-c3ccc(F)cc3)cn12 [compound 625, 6-(2-(4-Fluorophenyl)pyridin-3-yl)imidazo[1,2-a]pyridine-3-carbonitrile]",7790 nM
10,"COc1cccc(-c2ncccc2-c2ccc3ncc(C#N)n3c2)c1 [compound 626, 6-(2-(3-Methoxyphenyl)pyridin-3-yl)imidazo[1,2-a]pyridine-3-carbonitrile]",346 nM
11,"N#Cc1cccc(-c2ncccc2-c2ccc3ncc(C#N)n3c2)c1 [compound 627, 6-(2-(3-Cyanophenyl)pyridin-3-yl)imidazo[1,2-a]pyridine-3-carbonitrile]",1260 nM
12,"N#Cc1cc(-c2ncccc2-c2ccc3ncc(C#N)n3c2)ccc1F [compound 628, 6-(2-(3-Cyano-4-fluorophenyl)pyridin-3-yl)imidazo[1,2-a]pyridine-3-carbonitrile]",1710 nM
13,"Cc1cc(-c2ncccc2-c2ccc3c(cnn3C(=O)OC[C@H](N)Cc3c[nH]c4ccccc34)c2)ccc1F [compound 629, (R)-2-Amino-3-(1H-indol-3-yl)propyl 5-(2-(4-fluoro-3-methylphenyl)pyridin-3-yl)-1H-indazole-1-carboxylate TFA salt]",132 nM
14,"COc1cc(NC(=O)n2ncc3cc(-c4cccnc4-c4ccc(F)c(C)c4)ccc32)cc(OC)c1OC [compound 630, 5-(2-(4-Fluoro-3-methylphenyl)pyridin-3-yl)-N-(3,4,5-trimethoxyphenyl)-1H-indazole-1-carboxamide]",4150 nM
15,"Cc1cc(-c2ncccc2-c2ccc3c(cnn3C(=O)NCCN(C)C)c2)ccc1F [compound 633, N-(2-(Dimethylamino)ethyl)-5-(2-(4-fluoro-3-methylphenyl)pyridin-3-yl)-1H-indazole-1-carboxamide]",11300 nM
16,"Cc1cc(-c2ncccc2-c2ccc3c(cnn3C(=O)NCCCN(C)C)c2)ccc1F [compound 634, N-(3-(Dimethylamino)propyl)-5-(2-(4-fluoro-3-methylphenyl)pyridin-3-yl)-1H-indazole-1-carboxamide]",14800 nM
